IC50 and viability, T/C data for five molecules are collected here from PubChem BioAssay AID2060335 (Molecular Pharmacology Branch, DTP, NCI, 2025).

Values joined by “and” are separate entries in the source; they are usually repeats but may differ in a detail not shown here. Equal values may be shown once.

The test system of the assay is DU-145 multicell spheroids with HUVEC/MSC, viability. The assay is described as follows: Anticancer human tumor DU-145 cell line growth inhibition [IpAb].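 For all read-outs here: spheroids exposed to agents for seven days before measurement.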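 For viability, T/C: percent of DMSO vehicle control viability so 100% = untreated level.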 The settings on record: for viability, T/C: stronger effect = lower value. An outline of the steps:
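Spheroids of 60% malignant cells, 25% HUVEC and 15% MSC were exposed to targeted agents combined with ipatasertib or abemaciclib. Doses started at or near clinical Cmax (10 microM when unknown) and fell in half-log steps.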

[1] abbreviates: curve of first compound, second compound 0.1 µM.
Setting [2] is: curve of first compound, second compound 0.316 µM.
The mark [3] stands for this setting: curve of first compound, second compound 1 µM.
The mark [4] stands for this setting: curve of first compound, second compound 3.16 µM.
Setting [5] is: curve of first compound, second compound 10 µM.
[6] abbreviates: second compound 0.1 µM, first compound 0.0316 µM.
[7] abbreviates: second compound 0.1 µM, first compound 0.1 µM.
[8] abbreviates: second compound 0.1 µM, first compound 0.316 µM.
Setting [9] is: second compound 0.1 µM, first compound 1 µM.
The mark [10] stands for this setting: second compound 0.1 µM, first compound 3.16 µM.
[11] abbreviates: second compound 0.1 µM, first compound 10 µM.
Setting [12] is: second compound 0.316 µM, first compound 0.0316 µM.
Where [13] appears, read: second compound 0.316 µM, first compound 0.1 µM.
Setting [14] is: second compound 0.316 µM, first compound 0.316 µM.
[15] abbreviates: second compound 0.316 µM, first compound 1 µM.
Where [16] appears, read: second compound 0.316 µM, first compound 3.16 µM.
Setting [17] is: second compound 0.316 µM, first compound 10 µM.
Where [18] appears, read: second compound 1 µM, first compound 0.0316 µM.
Setting [19] is: second compound 1 µM, first compound 0.1 µM.
Where [20] appears, read: second compound 1 µM, first compound 0.316 µM.
Setting [21] is: second compound 1 µM, first compound 1 µM.
Setting [22] is: second compound 1 µM, first compound 3.16 µM.
Setting [23] is: second compound 1 µM, first compound 10 µM.
[24] abbreviates: second compound 3.16 µM, first compound 0.0316 µM.
Setting [25] is: second compound 3.16 µM, first compound 0.1 µM.
The mark [26] stands for this setting: second compound 3.16 µM, first compound 0.316 µM.
Where [27] appears, read: second compound 3.16 µM, first compound 1 µM.
Setting [28] is: second compound 3.16 µM, first compound 3.16 µM.
Where [29] appears, read: second compound 3.16 µM, first compound 10 µM.
[30] abbreviates: second compound 10 µM, first compound 0.0316 µM.
Setting [31] is: second compound 10 µM, first compound 0.1 µM.
Setting [32] is: second compound 10 µM, first compound 0.316 µM.
The mark [33] stands for this setting: second compound 10 µM, first compound 1 µM.
The mark [34] stands for this setting: second compound 10 µM, first compound 3.16 µM.
Where [35] appears, read: second compound 10 µM, first compound 10 µM.

For orientation: IC50 means the midpoint of a concentration-inhibition curve. Usually viability, T/C stands for the result in the treated group divided by that in the control group, in per cent. On to `Cc1nc(NC(=O)N2CCCC2C(N)=O)sc1-c1ccnc(C(C)(C)C(F)(F)F)c1` (stereo not drawn) + CC(C)NCC(C(=O)N1CCN(c2ncnc3c2C(C)CC3O)CC1)c1ccc(Cl)cc1, for which the IC50 is, setting by setting: under setting [1], 0.0947 µM; under setting [2], under 0.0316 µM; under setting [3], under 0.0316 µM; under setting [4], under 0.0316 µM; under setting [5], under 0.0316 µM. The viability, T/C is 65.7% under setting [6]; 49.2% under setting [7]; 32.1% under setting [8]; 27.9% under setting [9]; 18.1% under setting [10]; 7.81% under setting [11]. Also, the viability, T/C under setting [12] is 40%; the viability, T/C under setting [13] is 35%; the viability, T/C under setting [14] is 26.2%; the viability, T/C under setting [15] is 22.4%; the viability, T/C under setting [16] was 14.7%; the viability, T/C under setting [17] was 6.56%. The viability, T/C is, setting by setting: under setting [18], 27.1%; under setting [19], 24.3%; under setting [20], 20.5%; under setting [21], 17.1%; under setting [22], 12.4%; under setting [23], 5.68%. The viability, T/C was 18.3% under setting [24]; 18.5% under setting [25]; 14.1% under setting [26]; 14% under setting [27]; 8.48% under setting [28]; 5.66% under setting [29]. Further, the viability, T/C was 14.9% under setting [30]; 13.5% under setting [31]; 11.8% under setting [32]; 9.73% under setting [33]; 8.28% under setting [34]; 5.36% under setting [35].
`CC1(C)CCC(CN2CCN(c3ccc(C(=O)NS(=O)(=O)c4ccc(NCC5CCOCC5)c([N+](=O)[O-])c4)c(Oc4cnc5[nH]ccc5c4)c3)CC2)=C(c2ccc(Cl)cc2)C1` + CC(C)NCC(C(=O)N1CCN(c2ncnc3c2C(C)CC3O)CC1)c1ccc(Cl)cc1: the concentration for half-maximal inhibition (IC50) reads like this: under setting [1], 3.45 µM; under setting [2], 0.497 µM; under setting [3], under 0.0316 µM; under setting [4], under 0.0316 µM; under setting [5], under 0.0316 µM. Moreover, the viability, T/C is 86.7% under setting [6]; 87.5% under setting [7]; 78.1% under setting [8]; 74.9% under setting [9]; 53.3% under setting [10]; 11.5% under setting [11]. The viability, T/C runs as follows: under setting [12], 58.1%; under setting [13], 53.6%; under setting [14], 50.6%; under setting [15], 45.2%; under setting [16], 37%; under setting [17], 8.7%. Further, the viability, T/C runs as follows: under setting [18], 30.5%; under setting [19], 29.4%; under setting [20], 30.9%; under setting [21], 28.6%; under setting [22], 27.1%; under setting [23], 10.4%. Also, the viability, T/C is, setting by setting: under setting [24], 23.1%; under setting [25], 20.6%; under setting [26], 20.4%; under setting [27], 19.6%; under setting [28], 19.9%; under setting [29], 5.88%. The viability, T/C reads like this: under setting [30], 19.1%; under setting [31], 19.2%; under setting [32], 18.4%; under setting [33], 16.9%; under setting [34], 15.9%; under setting [35], 5.38%.
Regarding `COc1c(OCCCN2CCOCC2)ccc2c3n(c(=NC(=O)c4cnc(N)nc4)nc12)CCN3` + CCN1CCN(Cc2ccc(Nc3ncc(F)c(-c4cc(F)c5nc(C)n(C(C)C)c5c4)n3)nc2)CC1, the half-inhibitory concentration (IC50) (curve of first compound, second compound 0.01 µM) is 0.00799 µM; the concentration for half-maximal inhibition (IC50) (curve of first compound, second compound 0.0316 µM) came to 0.00614 µM; the IC50 under setting [1] was determined as 0.00488 µM; the IC50 under setting [2] was 0.00436 µM; the half-maximal inhibitory concentration (IC50) under setting [3] was 0.00494 µM. In addition, the viability, T/C is, setting by setting: (second compound 0.01 µM, first compound 0.00316 µM) 79.2%; (second compound 0.01 µM, first compound 0.01 µM) 41.3%; (second compound 0.01 µM, first compound 0.0316 µM) 28%; (second compound 0.01 µM, first compound 0.1 µM) 15.2%; (second compound 0.01 µM, first compound 0.316 µM) 9.78%; (second compound 0.01 µM, first compound 1 µM) 11.9%. The viability, T/C runs as follows: (second compound 0.0316 µM, first compound 0.00316 µM) 62.9%; (second compound 0.0316 µM, first compound 0.01 µM) 39.9%; (second compound 0.0316 µM, first compound 0.0316 µM) 25.3%; (second compound 0.0316 µM, first compound 0.1 µM) 13.5%; (second compound 0.0316 µM, first compound 0.316 µM) 9.95%; (second compound 0.0316 µM, first compound 1 µM) 11.3%. Besides, the viability, T/C (second compound 0.1 µM, first compound 0.00316 µM) was 57.1%; the viability, T/C (second compound 0.1 µM, first compound 0.01 µM) is 38%; the viability, T/C under setting [6] was 23.4%; the viability, T/C under setting [7] was 14.2%; the viability, T/C under setting [8] was 10.9%; the viability, T/C under setting [9] is 11.5%. Further, the viability, T/C (second compound 0.316 µM, first compound 0.00316 µM) was 53.6%; the viability, T/C (second compound 0.316 µM, first compound 0.01 µM) is 40.4%; the viability, T/C under setting [12] was 29.7%; the viability, T/C under setting [13] is 17.7%; the viability, T/C under setting [14] is 13.5%; the viability, T/C under setting [15] was 14%. For the same molecule, the viability, T/C is, setting by setting: (second compound 1 µM, first compound 0.00316 µM) 54.4%; (second compound 1 µM, first compound 0.01 µM) 42.8%; under setting [18], 32.9%; under setting [19], 25.7%; under setting [20], 19.7%; under setting [21], 20.8%.
On to `CC(C)(C)c1cnc(CSc2cnc(NC(=O)C3CCNCC3)s2)o1`, for which the viability, T/C reads like this: (compound 0.00949 µM) 110% and 106%; (compound 0.03 µM) 105% and 110%; (compound 0.0949 µM) 71.5% and 59.3%; (compound 0.3 µM) 12.9% and 9.3%; (compound 0.949 µM) 7.58% and 6.45%; (compound 3 µM) 5.4% and 5.44%. Moreover, the half-maximal inhibitory concentration (IC50) (curve of compound) was 0.145 µM and 0.117 µM.
Consider `CCN1CCN(Cc2ccc(Nc3ncc(F)c(-c4cc(F)c5nc(C)n(C(C)C)c5c4)n3)nc2)CC1`, for which the viability, T/C reads like this: (compound 0.01 µM) 97% [middle of 13 runs]; (compound 0.0316 µM) 94% [middle of 13 runs]; (compound 0.1 µM) 84.7% [middle of 13 runs]; (compound 0.316 µM) 74.7% [middle of 13 runs]; (compound 1 µM) 65.3% [middle of 13 runs]. The half-inhibitory concentration (IC50) (compound alone, run of 06/01/2021) was over 1 µM.
